Data taken from PubChem BioAssay (NCI).
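Values below derive from 48-hour exposures of cells grown in 96-well plates, with endpoints linearly interpolated between the two concentrations bracketing the appropriate inhibition level. Here, GI50 denotes the concentration required for 50% inhibition of growth. At the TGI there is no net growth.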

Experiments:
Experiment in all cases: NCI anticancer screen, dose series, 48 h
[1] = system: 786-0 renal
[2] = system: A498 renal
[3] = system: A549 NSCLC
[4] = system: ACHN renal
[5] = system: BT-549 breast
[6] = system: CAKI-1 renal
[7] = system: COLO 205 colon
[8] = system: DU-145 prostate
[9] = system: EKVX NSCLC
[10] = system: HCT-116 colon
[11] = system: HCT-15 colon
[12] = system: HL-60(TB) leukemia
[13] = system: HOP-62 NSCLC
[14] = system: HOP-92 NSCLC
[15] = system: HS 578T breast
[16] = system: HT29 colon
[17] = system: IGROV1 ovarian
[18] = system: K-562 leukemia
[19] = system: KM12 colon
[20] = system: LOX IMVI melanoma
[21] = system: M14 melanoma
[22] = system: MALME-3M melanoma
[23] = system: MCF7 breast
[24] = system: MDA-MB-231 breast
[25] = system: MDA-MB-435
[26] = system: MOLT-4 leukemia
[27] = system: NCI-H226 lung
[28] = system: NCI-H23 lung
[29] = system: NCI-H460 lung
[30] = system: NCI-H522 lung
[31] = system: NCI/ADR-RES ovarian
[32] = system: OVCAR-3 ovarian
[33] = system: OVCAR-4 ovarian
[34] = system: OVCAR-5 ovarian
[35] = system: OVCAR-8 ovarian
[36] = system: PC-3 prostate
[37] = system: RPMI-8226 leukemia
[38] = system: RXF 393 renal
[39] = system: SF-268 CNS
[40] = system: SF-295 CNS
[41] = system: SF-539 CNS
[42] = system: SK-MEL-2 melanoma
[43] = system: SK-MEL-28 melanoma
[44] = system: SK-MEL-5 melanoma
[45] = system: SK-OV-3 ovarian
[46] = system: SN12C renal
[47] = system: SNB-19 CNS
[48] = system: SNB-75 CNS
[49] = system: SR leukemia
[50] = system: SW-620 colon
[51] = system: T-47D breast
[52] = system: TK-10 renal
[53] = system: U251 CNS
[54] = system: UACC-257 melanoma
[55] = system: UACC-62 melanoma
[56] = system: HCC-2998 colon
[57] = system: UO-31 renal
[58] = system: CCRF-CEM leukemia

OC1CCN(c2c3ccccc3nc3ccccc23)CC1
TGI [1]: > 100 µM
TGI [2]: 35.6 µM
TGI [3]: > 100 µM
TGI [4]: 26.4 µM
TGI [5]: 41.1 µM
TGI [6]: 50.5 µM
TGI [7]: 9.45 µM
TGI [8]: > 100 µM
TGI [9]: > 100 µM
TGI [10]: > 100 µM
TGI [11]: 39.7 µM
TGI [12]: > 100 µM
TGI [13]: > 100 µM
TGI [14]: > 100 µM
TGI [15]: > 100 µM
TGI [16]: 5.44 µM
TGI [17]: 40.6 µM
TGI [18]: > 100 µM
TGI [19]: > 100 µM
TGI [20]: > 100 µM
TGI [21]: > 100 µM
TGI [22]: 36.9 µM
TGI [23]: 10.3 µM
TGI [24]: 84.9 µM
TGI [25]: 54.9 µM
TGI [26]: > 100 µM
TGI [27]: > 100 µM
TGI [28]: > 100 µM
TGI [29]: 50.9 µM
TGI [30]: 7.42 µM
TGI [31]: > 100 µM
TGI [32]: > 100 µM
TGI [33]: 36.6 µM
TGI [34]: > 100 µM
TGI [35]: 79 µM
TGI [36]: > 100 µM
TGI [37]: > 100 µM
TGI [38]: 17.5 µM
TGI [39]: 34 µM
TGI [40]: 72.9 µM
TGI [41]: > 100 µM
TGI [42]: 27.6 µM
TGI [43]: 5.52 µM
TGI [44]: 35.6 µM
TGI [45]: 82.7 µM
TGI [46]: > 100 µM
TGI [47]: 75 µM
TGI [48]: 44.7 µM
TGI [49]: > 100 µM
TGI [50]: > 100 µM
TGI [51]: 4.78 µM
TGI [52]: 22.1 µM
TGI [53]: 51.1 µM
TGI [54]: 40.8 µM
TGI [55]: 99.3 µM

CCCC(c1nnnn1C1CCCCC1)N1CCN(C(=O)c2ccco2)CC1 (stereo not given)
GI50 [1]: > 100 µM
TGI [1]: > 100 µM
GI50 [2]: > 100 µM
TGI [2]: > 100 µM
GI50 [4]: > 100 µM
TGI [4]: > 100 µM
GI50 [5]: > 100 µM
TGI [5]: > 100 µM
GI50 [6]: > 100 µM
TGI [6]: > 100 µM
GI50 [7]: > 100 µM
TGI [7]: > 100 µM
GI50 [8]: > 100 µM
TGI [8]: > 100 µM
GI50 [56]: > 100 µM
TGI [56]: > 100 µM
GI50 [10]: > 100 µM
TGI [10]: > 100 µM
GI50 [11]: > 100 µM
TGI [11]: > 100 µM
GI50 [12]: > 100 µM
TGI [12]: > 100 µM
GI50 [13]: > 100 µM
TGI [13]: > 100 µM
GI50 [14]: > 100 µM
TGI [14]: > 100 µM
GI50 [15]: > 100 µM
TGI [15]: > 100 µM
GI50 [16]: > 100 µM
TGI [16]: > 100 µM
GI50 [17]: > 100 µM
TGI [17]: > 100 µM
GI50 [18]: > 100 µM
TGI [18]: > 100 µM
GI50 [19]: > 100 µM
TGI [19]: > 100 µM
GI50 [20]: > 100 µM
TGI [20]: > 100 µM
GI50 [21]: > 100 µM
TGI [21]: > 100 µM
GI50 [22]: > 100 µM
TGI [22]: > 100 µM
GI50 [23]: > 100 µM
TGI [23]: > 100 µM
GI50 [24]: > 100 µM
TGI [24]: > 100 µM
GI50 [25]: > 100 µM
TGI [25]: > 100 µM
GI50 [26]: > 100 µM
TGI [26]: > 100 µM
GI50 [27]: > 100 µM
TGI [27]: > 100 µM
GI50 [28]: > 100 µM
TGI [28]: > 100 µM
GI50 [29]: > 100 µM
TGI [29]: > 100 µM
GI50 [31]: > 100 µM
TGI [31]: > 100 µM
GI50 [32]: > 100 µM
TGI [32]: > 100 µM
GI50 [33]: > 100 µM
TGI [33]: > 100 µM
GI50 [34]: > 100 µM
TGI [34]: > 100 µM
GI50 [35]: > 100 µM
TGI [35]: > 100 µM
GI50 [36]: > 100 µM
TGI [36]: > 100 µM
GI50 [37]: > 100 µM
TGI [37]: > 100 µM
GI50 [38]: > 100 µM
TGI [38]: > 100 µM
GI50 [39]: > 100 µM
TGI [39]: > 100 µM
GI50 [40]: > 100 µM
TGI [40]: > 100 µM
GI50 [41]: > 100 µM
TGI [41]: > 100 µM
GI50 [42]: > 100 µM
TGI [42]: > 100 µM
GI50 [43]: > 100 µM
TGI [43]: > 100 µM
GI50 [44]: > 100 µM
TGI [44]: > 100 µM
GI50 [45]: > 100 µM
TGI [45]: > 100 µM
GI50 [46]: > 100 µM
TGI [46]: > 100 µM
GI50 [47]: > 100 µM
TGI [47]: > 100 µM
GI50 [48]: > 100 µM
TGI [48]: > 100 µM
GI50 [49]: > 100 µM
TGI [49]: > 100 µM
GI50 [50]: > 100 µM
TGI [50]: > 100 µM
GI50 [51]: > 100 µM
TGI [51]: > 100 µM
GI50 [52]: > 100 µM
TGI [52]: > 100 µM
GI50 [53]: > 100 µM
TGI [53]: > 100 µM
GI50 [55]: > 100 µM
TGI [55]: > 100 µM
GI50 [57]: > 100 µM
TGI [57]: > 100 µM

Cc1ccc(Nc2nc3nc[nH]c3c(=O)[nH]2)cc1CO
TGI [1]: 29.1 µM
TGI [3]: 10.2 µM
TGI [4]: 29.4 µM
TGI [5]: 28.4 µM
TGI [6]: 29.3 µM
TGI [58]: 36.2 µM
TGI [7]: 27.8 µM
TGI [8]: 33.6 µM
TGI [9]: 28 µM
TGI [56]: 28.9 µM
TGI [10]: 25.4 µM
TGI [11]: 29.9 µM
TGI [12]: 21.6 µM
TGI [14]: 21 µM
TGI [15]: 43.9 µM
TGI [16]: 22 µM
TGI [17]: 28.3 µM
TGI [18]: 40 µM
TGI [19]: 22.7 µM
TGI [20]: 36.5 µM
TGI [21]: 25.5 µM
TGI [22]: 30.4 µM
TGI [23]: 30.4 µM
TGI [24]: 24.7 µM
TGI [25]: 29.6 µM
TGI [26]: 34.3 µM
TGI [27]: 31.8 µM
TGI [28]: 33.9 µM
TGI [29]: 30.7 µM
TGI [30]: 24.3 µM
TGI [31]: 29.8 µM
TGI [32]: 29.2 µM
TGI [33]: 31.4 µM
TGI [34]: 33.6 µM
TGI [35]: 30.4 µM
TGI [36]: 25.4 µM
TGI [37]: 33.7 µM
TGI [38]: 30 µM
TGI [39]: 35.8 µM
TGI [40]: 29.6 µM
TGI [42]: 31.2 µM
TGI [43]: 32.1 µM
TGI [44]: 31.2 µM
TGI [45]: 27.7 µM
TGI [47]: 24.6 µM
TGI [48]: 29.2 µM
TGI [49]: 37.7 µM
TGI [50]: 32 µM
TGI [51]: 27.2 µM
TGI [52]: 31.9 µM
TGI [54]: 31.2 µM
TGI [55]: 25.9 µM
TGI [57]: 29.5 µM

Cc1cc(NN)nc2n[nH]c(N)c12
TGI [1]: > 100 µM
TGI [2]: > 100 µM
TGI [3]: > 100 µM
TGI [4]: > 100 µM
TGI [5]: > 100 µM
TGI [6]: > 100 µM
TGI [58]: > 100 µM
TGI [7]: > 100 µM
TGI [8]: > 100 µM
TGI [9]: > 100 µM
TGI [10]: > 100 µM
TGI [11]: > 100 µM
TGI [13]: > 100 µM
TGI [14]: > 100 µM
TGI [15]: > 100 µM
TGI [16]: > 100 µM
TGI [17]: > 100 µM
TGI [18]: > 100 µM
TGI [19]: > 100 µM
TGI [20]: > 100 µM
TGI [21]: > 100 µM
TGI [22]: > 100 µM
TGI [23]: > 100 µM
TGI [24]: > 100 µM
TGI [25]: > 100 µM
TGI [26]: > 100 µM
TGI [27]: > 100 µM
TGI [28]: > 100 µM
TGI [29]: > 100 µM
TGI [30]: > 100 µM
TGI [31]: > 100 µM
TGI [32]: > 100 µM
TGI [33]: > 100 µM
TGI [34]: > 100 µM
TGI [35]: > 100 µM
TGI [36]: > 100 µM
TGI [37]: > 100 µM
TGI [38]: > 100 µM
TGI [39]: > 100 µM
TGI [40]: > 100 µM
TGI [41]: > 100 µM
TGI [42]: > 100 µM
TGI [43]: > 100 µM
TGI [44]: > 100 µM
TGI [45]: > 100 µM
TGI [46]: > 100 µM
TGI [47]: > 100 µM
TGI [48]: > 100 µM
TGI [49]: > 100 µM
TGI [50]: > 100 µM
TGI [51]: > 100 µM
TGI [52]: > 100 µM
TGI [53]: > 100 µM
TGI [54]: > 100 µM
TGI [55]: > 100 µM
TGI [57]: > 100 µM
